Test results reported in patent US12673946B2, “Pyrimidin-4(3H)-one derivatives as TRPV4 antagonists” (RaQualia Pharma Inc., priority 2020, dated 2026).

Target: T1, human TRPV4 (Homo sapiens, UniProt Q9HBA0)
T1 construct: host or cells: tetracycline-inducible Flp-In T-REx 293 cells
Test: Hypotonicity-induced Ca2+ influx (Fluo-4, FDSS)
Assay type: cell-based
Method in brief: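 Flp-In T-REx 293 cells with tetracycline-induced human TRPV4, loaded with Fluo-4 for 60 min at 25 °C. Compound added 5 min before hypotonic mannitol/CaCl2 solution. Ca2+ signal recorded for 4.5 min on FDSS.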

[1] = Flp-In T-REx 293 cells expressing human TRPV4, examples listed under heading 'Human IC50<50 nM'
[2] = Flp-In T-REx 293 cells stably expressing human TRPV4, compounds listed by potency bin (<10 nM Tables 96-1/96-2, <3 nM Table 97)

T1 sequence (Q9HBA0 whole entry): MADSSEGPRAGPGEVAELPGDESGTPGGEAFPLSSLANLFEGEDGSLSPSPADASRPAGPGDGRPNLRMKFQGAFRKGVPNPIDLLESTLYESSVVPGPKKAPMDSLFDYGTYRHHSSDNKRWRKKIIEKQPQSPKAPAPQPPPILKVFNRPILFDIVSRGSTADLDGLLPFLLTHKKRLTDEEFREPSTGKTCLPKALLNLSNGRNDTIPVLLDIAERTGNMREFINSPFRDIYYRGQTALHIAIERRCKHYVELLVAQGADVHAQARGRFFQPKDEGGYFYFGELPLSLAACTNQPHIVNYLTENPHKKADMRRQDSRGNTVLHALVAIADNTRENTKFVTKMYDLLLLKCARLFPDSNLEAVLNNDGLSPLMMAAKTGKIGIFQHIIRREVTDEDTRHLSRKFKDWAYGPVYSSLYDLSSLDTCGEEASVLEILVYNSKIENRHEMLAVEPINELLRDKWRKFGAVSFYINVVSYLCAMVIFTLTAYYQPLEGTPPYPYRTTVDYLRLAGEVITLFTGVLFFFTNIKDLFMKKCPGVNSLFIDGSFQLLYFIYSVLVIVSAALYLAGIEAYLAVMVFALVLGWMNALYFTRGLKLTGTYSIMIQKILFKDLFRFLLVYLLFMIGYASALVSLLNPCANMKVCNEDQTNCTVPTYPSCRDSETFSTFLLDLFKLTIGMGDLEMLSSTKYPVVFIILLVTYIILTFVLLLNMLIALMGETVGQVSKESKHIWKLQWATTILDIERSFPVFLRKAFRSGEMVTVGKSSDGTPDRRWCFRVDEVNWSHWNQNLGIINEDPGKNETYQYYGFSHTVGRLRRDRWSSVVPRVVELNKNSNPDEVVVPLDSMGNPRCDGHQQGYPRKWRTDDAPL

Row | IC50 [1] [nM] | IC50 [2] [nM] | Structure (SMILES)
1 | < 50 | < 3 | O=C([C@H](O)c1cccc(C(F)(F)F)c1)N1CCc2nc(C3(c4cc(C5CCCC5)cs4)CC3)[nH]c(=O)c2C1 [15-1]
2 | < 50 | < 10 | Cc1cc(Cl)cc(-c2cccc([C@@H](O)C(=O)N3CCc4nc(C5(c6ccccc6)CC5)[nH]c(=O)c4C3)c2)c1 [44-96]
3 | < 50 | < 10 | O=C(C(O)c1cccc(-c2ccc(Cl)c(F)c2)c1)N1CCc2nc(C3(c4ccccc4)CC3)[nH]c(=O)c2C1 (stereo not drawn) [44-15]
4 | < 50 | < 10 | CC(C)c1cncc(C2(c3nc4c(c(=O)[nH]3)CN(C(=O)[C@H](O)c3cccc(Cl)c3)CC4)CC2)c1 [25-3]
5 | < 50 | < 10 | O=C([C@H](O)c1cccc(-c2cccc(C(F)(F)F)c2)c1)N1CCCc2nc(C3(c4cccc(Oc5ccccc5)c4)CC3)[nH]c(=O)c2C1 [52-8]
6 | < 50 | < 10 | O=C([C@H](O)c1cccc(-c2cccc(C(F)(F)F)c2)c1)N1CCCc2nc(C3(c4cccs4)CC3)[nH]c(=O)c2C1 [53-1]
7 | < 50 | < 3 | O=C([C@H](O)c1cccc(-c2cccc(Cl)c2)c1)N1CCCc2nc(C3(c4cccc(C5CCCCC5)c4)CC3)[nH]c(=O)c2C1 [52-3]
8 | < 50 | < 3 | O=C([C@H](O)c1cccc(-c2cc(F)cc(Cl)c2)c1)N1CCCc2nc(C3(c4ccccc4)CC3)[nH]c(=O)c2C1 [49-27]
9 | < 50 | < 10 | O=C([C@H](O)c1cccc(C(F)(F)F)c1)N1CCCc2nc(C3(c4cccc(-c5cncc(C(F)(F)F)c5)c4)CC3)[nH]c(=O)c2C1 [42-45]
10 | < 50 | < 10 | O=C(Cc1cccc(-c2cccc(Cl)c2)c1)N1CCCc2nc(C3(c4cccc(-c5csc6ccccc56)c4)CC3)[nH]c(=O)c2C1 [17-123]
11 | < 50 | < 3 | CC(C)c1cccc(C2(c3nc4c(c(=O)[nH]3)CN(C(=O)[C@H](O)c3cccc(C(F)(F)F)c3)CCC4)CC2)c1 [31-8]
12 | < 50 | < 3 | O=C(N1CCCc2nc(C3(c4cccc(F)c4)CC3)[nH]c(=O)c2C1)C(F)(F)c1cccc(C(F)(F)F)c1 [20-3]
13 | < 50 | < 10 | CC(C)c1cccc(-c2cccc([C@@H](O)C(=O)N3CCCc4nc(C5(c6cccs6)CC5)[nH]c(=O)c4C3)c2)c1 [53-3]
14 | < 50 | – | O=C(C(O)c1cccc(-c2ccnc(C(F)(F)F)c2)c1F)N1CCc2nc(C3(c4ccccc4)CC3)[nH]c(=O)c2C1 (stereo not drawn) [44-23]
15 | < 50 | < 10 | CC(C)c1cncc(C2(c3nc4c(c(=O)[nH]3)CN(C(=O)C(F)(F)c3cccc(C(F)(F)F)c3)CC4)CC2)c1 [22-9]
16 | < 50 | < 3 | CC(C)(C)c1cccc(-c2cccc([C@@H](O)C(=O)N3CCCc4nc(C5(c6ccccc6)CC5)[nH]c(=O)c4C3)c2)c1 [49-16]

Row | IC50 [1] [nM] | IC50 [2] [nM] | Structure (SMILES)
17 | < 50 | – | Cn1ccc(-c2cccc(C3(c4nc5c(c(=O)[nH]4)CN(C(=O)[C@H](O)c4cccc(C(F)(F)F)c4)CCC5)CC3)c2)n1 [42-34]
18 | < 50 | < 3 | O=C([C@H](O)c1cccc(Cl)c1)N1CCCc2nc(C3(c4cccc(-c5coc6ccccc56)c4)CC3)[nH]c(=O)c2C1 [40-19]
19 | < 50 | < 10 | Cc1cc(-c2cccc([C@@H](O)C(=O)N3CCc4nc(C5(c6ccccc6)CC5)[nH]c(=O)c4C3)c2)ccc1Cl [44-117]
20 | < 50 | < 10 | O=C([C@H](O)c1cccc(F)c1F)N1CCCc2nc(C3(c4cccc(Cl)c4)CC3)[nH]c(=O)c2C1 [17-35]
21 | < 50 | < 3 | O=C(C(O)c1cccc(Cl)c1F)N1CCCc2nc(C3(c4cncc(-c5ccccc5)c4)CC3)[nH]c(=O)c2C1 (stereo not drawn) [19-11]
22 | < 50 | < 10 | CC(C)(C)CCc1csc(C2(c3nc4c(c(=O)[nH]3)CN(C(=O)[C@H](O)c3cccc(C(F)(F)F)c3)CCC4)CC2)c1 [30-4]
23 | < 50 | – | COc1cccc(C2(c3nc4c(c(=O)[nH]3)CN(C(=O)[C@H](O)c3cccc(C(F)(F)F)c3)CCC4)CC2)c1 [17-54]
24 | < 50 | < 10 | Cc1cccc(-c2cccc(C3(c4nc5c(c(=O)[nH]4)CN(C(=O)[C@H](O)c4cccc(C(F)(F)F)c4)CCC5)CC3)c2)c1 [42-64]
25 | < 50 | – | O=C(C(O)c1cccc(-c2cccc(F)c2)c1)N1CCc2nc(C3(c4cccs4)CC3)[nH]c(=O)c2C1 (stereo not drawn) [15-11]
26 | < 50 | < 3 | O=C([C@H](O)c1cccc(C(F)(F)F)c1)N1CCCc2nc(C3(c4cc(Br)cs4)CC3)[nH]c(=O)c2C1 [18-2]
27 | < 50 | < 10 | O=C([C@H](O)c1cccc(C(F)(F)F)c1)N1CCCc2nc(C3(c4cc(CCC56CC7CC(CC(C7)C5)C6)cs4)CC3)[nH]c(=O)c2C1 [30-5]
28 | < 50 | < 3 | O=C([C@H](O)c1cccc(-c2cccc(C3CC3)c2)c1)N1CCCc2nc(C3(c4cccs4)CC3)[nH]c(=O)c2C1 [53-6]
29 | < 50 | < 10 | O=C([C@H](O)c1cccc(Cl)c1)N1CCc2nc(C3(c4cc(C5CCCC5)cs4)CC3)[nH]c(=O)c2C1 [23-2]
30 | < 50 | < 10 | O=C([C@H](O)c1cccc(C(F)(F)F)c1)N1CCc2nc(C3(c4cccc(C5CCOCC5)c4)CC3)[nH]c(=O)c2C1 [27-3]
31 | < 50 | < 10 | CC(C)c1cncc(C2(c3nc4c(c(=O)[nH]3)CN(C(=O)C(O)c3cccc(-c5cccc(C(C)(C)C)c5)c3)CCC4)CC2)c1 (stereo not drawn) [55-1]
32 | < 50 | < 3 | O=C([C@H](O)c1cccc(-c2cccc(C(F)(F)F)n2)c1)N1CCc2nc(C3(c4ccccc4)CC3)[nH]c(=O)c2C1 [44-78]
